Tests used:
Namalwa cells = assay: Proliferation of Namalwa cells alone, with control fibroblasts or with CD40L-expressing fibroblasts; type: cell-based; details: for sensitivity of Namalwa cells to CD40 ligation by CD40L: pre-treatment with compound, CD40L transfected fibroblasts (FIG. 4)
From the text: (§1) L929 cells are derived from an immortalized mouse fibroblast cell line, and are routinely used in in-vitro assays. The L929 cells used herein were obtained from the American Type Culture Collection (ATCC). Raji cells were also obtained from ATCC. Namalwa cells were obtained from the German Resource Centre for Biological Materials DSMZ. B-CLL cells were obtained from the peripheral blood of patients enrolled in a clinical trial.
(§2) Namalwa, Raji, CD40L-transfected fibroblasts and L929 fibroblasts were cultured in RPMI medium (Gibco-Invitrogen) supplemented with 10% FBS. B-CLL cells were cultured in Iscove's medium (Gibco-Invitrogen) plus 15% FBS. Namalwa, Raji and B-CLL cells were cultured with compounds from 2 to 4 days. Fibroblasts were maintained in culture in monolayers. The day before the co-culture, the fibroblasts were treated with mitomycin C to stop proliferation and were then replated. Suspension cells were then added to the fibroblasts and the culture was incubated for 2 to 4 days.
(§3) Flow cytometry was then used to determine cell numbers and the percentage of apoptotic cells using the FACSArray system (BD Biosciences). The cells were stained with 7-Amino-Actinomycin D (7-AAD) (BD Pharmingen) for 10 minutes at room temperature prior to flow cytometry analysis in order to identify non-viable cells.

CD19^+CD5^+ cells = assay: CD40 on CD19+CD5+ cells of patients undergoing therapy, flow cytometry; type: in vivo, human
B-CLL cells [1] = assay: Response of B-CLL cells to CD40L-transfected fibroblasts after compound pre-treatment; type: cell-based, human; details: for response of B-CLL cells to CD40L treatment (percentage of viable cells per ml): relapsed patient at baseline, pre-treated 48 hours, then coculture with CD40L-transfected or control fibroblasts 48 hours (FIG. 5)
From the text: as §1, §2, §3
Pre-treatment with immunomodulatory compounds also augmented the sensitivity of Namalwa cells and CLL cells to CD40 ligation by CD40L. B-CLL cells taken from a relapsed patient at baseline were pre-treated with either 1,3-dioxo-2-(2,6-dioxopiperidin-3-yl)-4-aminoisoindoline or 1-oxo-2-(2,6-dioxopiperidin-3-yl)-4-aminoisoindoline for 48 hours. The cells were then cocultured with either CD40L-transfected fibroblasts or control fibroblasts for another 48 hours. The percentage of viable cells per ml was then measured (FIG. 5). Cells from another patient were pretreated with 1-oxo-2-(2,6-dioxopiperidin-3-yl)-4-aminoisoindoline for 24 hours and then cocultured with either CD40L-transfected fibroblasts or control fibroblasts for an additional 48 hours.

Raji cells = assay: CD40 expression on Raji cells by flow cytometry; type: cell-based; details: 10 μM, 48 hours of incubation, vs DMSO control (FIG. 1)
B-CLL cells [2] = assay: CD40 expression in cultured B-CLL cells (anti-CD40 APC antibody mean intensity); type: cell-based, human; details: for mean intensity of anti-CD40 APC antibody: CD5+ CD19+ CLL blasts from a newly diagnosed patient, 4 days in culture (FIG. 2)
normal primary B cells = assay: Effect on normal primary B cells (p21 expression, viable cells); type: cell-based; details: for viable normal B cells: normal primary B cells in culture; for level of p21 expression: normal primary B cells, after 24 hours and 72 hours of culture
Experimental: as §3
Total RNA was isolated from Namalwa and B-CLL cells using RNAeasy (Qiagen). Gene expression analysis was performed using Affymetrix human U133A gene chips. Double-stranded cDNA was synthesized using […] of total RNA. Biotin-labeled cRNA was synthesized using a MessageAmp aRNA kit (Ambion). […] of cRNA was fragmented and hybridized to each array. The above procedures were performed twice for each RNA sample to obtain replicate biotin-labeled probes.
Cells cultured in the presence or absence of 1,3-dioxo-2-(2,6-dioxopiperidin-3-yl)-4-aminoisoindoline or 1-oxo-2-(2,6-dioxopiperidin-3-yl)-4-aminoisoindoline were characterized using flow cytometry and gene array analysis.

Molecule: Nc1cccc2c1CN(C1CCC(=O)NC1=O)C2=O (stereo not drawn) [1-oxo-2-(2,6-dioxopiperidin-3-yl)-4-aminoisoindoline]
- sensitivity of Namalwa cells to CD40 ligation by CD40L (Namalwa cells): increased the sensitivity of Namalwa cells to CD40 ligation by CD40L
- CD40+ cells among CD19+CD5+ cells (CD19^+CD5^+ cells; patient of FIG. 7, after 8 days of therapy, baseline 6.4%): 57.4%
- CD40+ cells among CD19+CD5+ cells (CD19^+CD5^+ cells; patient of FIG. 8, after 8 days of therapy, baseline 12.5%): 36.7%
- CD40+ cells among CD19+CD5+ cells (CD19^+CD5^+ cells; patient of FIG. 9, after 28 days of therapy, baseline 2.4%): 13.9%
- CD40 in B-CLL cells of patients (CD19^+CD5^+ cells; patients undergoing therapy, summary statement): upregulation of CD40 in B-CLL cells
- response of B-CLL cells to CD40L treatment (total cells/ml) (B-CLL cells [1]; newly diagnosed patient, pre-treated 0.1, 1.0 or 10 μM 24 hours, then CD40L-transfected or control fibroblasts 48 h (FIG. 6)): increases the response of B-CLL cells to CD40L treatment
- response of B-CLL cells to CD40L treatment (percentage of viable cells per ml) (B-CLL cells [1]): increases the response of B-CLL cells to CD40L treatment
- percentage of CD40+ cells (Raji cells): increase the number of CD40^+ Raji cells
- mean intensity of anti-CD40 APC antibody (B-CLL cells [2]): approximately doubled
- viable normal B cells (normal primary B cells): dose-dependent increase in viable normal B cells
- level of p21 expression (normal primary B cells): did not increase the level of p21 expression

Molecule: Nc1cccc2c1C(=O)N(C1CCC(=O)NC1=O)C2=O (stereo not drawn) [1,3-dioxo-2-(2,6-dioxopiperidin-3-yl)-4-aminoisoindoline]
- proliferation of Namalwa cells (Namalwa cells; 0.01-10 μM, alone or in the presence of control fibroblasts (FIG. 4)): inhibiting cell proliferation in a dose dependent manner
- sensitivity of Namalwa cells to CD40 ligation by CD40L (Namalwa cells): increased the sensitivity of Namalwa cells to CD40 ligation by CD40L
- response of B-CLL cells to CD40L treatment (percentage of viable cells per ml) (B-CLL cells [1]): increases the response of B-CLL cells to CD40L treatment
- percentage of CD40+ cells (Raji cells): increase the number of CD40^+ Raji cells
- mean intensity of anti-CD40 APC antibody (B-CLL cells [2]): approximately doubled
- mean intensity of anti-CD40 APC antibody in CD5+CD19+ CLL blasts (B-CLL cells [2]; newly diagnosed patient, 0.1, 1.0 or 10 μM, 24 hours, vs DMSO (FIG. 3)): augments the expression of CD40 in a dose responsive manner
- viable normal B cells (normal primary B cells): dose-dependent increase in viable normal B cells
- level of p21 expression (normal primary B cells): did not increase the level of p21 expression

B1: CD40L: CD40 ligand, used in the form of CD40L transfected fibroblasts (protein, UniProt P29965 113-261, looked up)
CD40 ligand, soluble form: MQKGDQNPQIAAHVISEASSKTTSVLQWAEKGYYTMSNNLVTLENGKQLTVKRQGLYYIYAQVTFCSNREASSQAPFIASLCLKSPGRFERILLRAANTHSSAKPCGQQSIHLGGVFELQPGASVFVNVTDPSQVSHGTGFTSFGLLKL
modifications: expressed on transfected fibroblasts
- cell growth / cell apoptosis (Namalwa cells; Namalwa cells treated with CD40L transfected fibroblasts): inhibit cell growth and/or augment cell apoptosis
- cell growth / cell apoptosis (B-CLL cells [1]; B-CLL cells treated with CD40L transfected fibroblasts): inhibit cell growth and/or augment cell apoptosis

— US20090232796A1, “METHOD OF TREATING CANCER BY ADMINISTERING AN IMMUNOMODULATORY COMPOUND IN COMBINATION WITH A CD40 ANTIBODY OR CD40 LIGAND” (priority 2008, published 2009)
